Assay results taken from PubChem BioAssay (NCI).
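Exposure lasted 48 hours, with cells grown in 96-well plates and compounds tested at five concentrations. Definition used: TGI = concentration required for complete inhibition of growth.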 Where a SMILES comes first, the peptide text is derived from it. Bridges are numbered along the chain shown (N, C = ends). [ ]: non-standard residue; d: D form. The star is where a group is joined. ξ: configuration not given here. X26 = O=C(/C=C/C=C/C=C/C=C/C=C/C(=O)*)NC1=C(O)CCC1=O; Pro(4R-Me) = C[C@H]1CN[C@H](C(=O)O)C1; NMeA = CN[C@@H](C)C(=O)O; ξF = NC(Cc1ccccc1)C(=O)O; ξA = CC(N)C(=O)O

Experiments:
Assay in all cases: growth of human tumour cells (NCI), 48 h
[1] = test system: MALME-3M melanoma
[2] = test system: IGROV1 ovarian
[3] = test system: RPMI-8226 leukemia
[4] = test system: NCI-H522 lung
[5] = test system: CCRF-CEM leukemia
[6] = test system: NCI-H23 lung
[7] = test system: EKVX NSCLC
[8] = test system: UACC-257 melanoma
[9] = test system: MCF7 breast
[10] = test system: M14 melanoma
[11] = test system: SF-295 CNS
[12] = test system: SNB-75 CNS
[13] = test system: UO-31 renal
[14] = test system: RXF 393 renal
[15] = test system: KM12 colon
[16] = test system: HCT-15 colon
[17] = test system: ACHN renal
[18] = test system: HCC-2998 colon
[19] = test system: SR leukemia
[20] = test system: OVCAR-4 ovarian
[21] = test system: SW-620 colon
[22] = test system: SF-268 CNS
[23] = test system: SK-MEL-5 melanoma
[24] = test system: SK-MEL-2 melanoma
[25] = test system: MDA-MB-435
[26] = test system: DU-145 prostate
[27] = test system: U251 CNS
[28] = test system: HS 578T breast
[29] = test system: 786-0 renal
[30] = test system: NCI-H460 lung
[31] = test system: PC-3 prostate
[32] = test system: HOP-92 NSCLC
[33] = test system: SK-MEL-28 melanoma
[34] = test system: HL-60(TB) leukemia
[35] = test system: A549 NSCLC
[36] = test system: SNB-19 CNS
[37] = test system: OVCAR-3 ovarian
[38] = test system: COLO 205 colon
[39] = test system: BT-549 breast
[40] = test system: OVCAR-5 ovarian
[41] = test system: T-47D breast
[42] = test system: K-562 leukemia
[43] = test system: SN12C renal
[44] = test system: MDA-N
[45] = test system: LOX IMVI melanoma
[46] = test system: SF-539 CNS
[47] = test system: NCI/ADR-RES ovarian
[48] = test system: HOP-62 NSCLC
[49] = test system: OVCAR-8 ovarian
[50] = test system: MOLT-4 leukemia
[51] = test system: UACC-62 melanoma
[52] = test system: SK-OV-3 ovarian
[53] = test system: HCT-116 colon
[54] = test system: TK-10 renal
[55] = test system: A498 renal
[56] = test system: MDA-MB-231 breast
[57] = test system: HT29 colon
[58] = test system: CAKI-1 renal

Clc1cc(OC23CC4CC(CC(C4)C2)C3)nc(Cl)n1
TGI [1]: > 100 µM
TGI [2]: > 100 µM
TGI [3]: > 100 µM
TGI [4]: > 100 µM
TGI [5]: 86.2 µM
TGI [6]: > 100 µM
TGI [7]: > 100 µM
TGI [8]: > 100 µM
TGI [9]: > 100 µM
TGI [10]: > 100 µM
TGI [11]: > 100 µM
TGI [12]: > 100 µM
TGI [13]: 87.5 µM
TGI [14]: 85.8 µM
TGI [15]: > 100 µM
TGI [16]: > 100 µM
TGI [17]: > 100 µM
TGI [18]: 29.6 µM
TGI [19]: 48.4 µM
TGI [20]: > 100 µM
TGI [21]: > 100 µM
TGI [22]: > 100 µM
TGI [23]: > 100 µM
TGI [24]: > 100 µM
TGI [25]: > 100 µM
TGI [26]: > 100 µM
TGI [27]: > 100 µM
TGI [28]: 54.3 µM
TGI [29]: > 100 µM
TGI [30]: > 100 µM
TGI [31]: > 100 µM
TGI [32]: 3.5 µM
TGI [33]: > 100 µM
TGI [34]: 29.7 µM
TGI [35]: > 100 µM
TGI [36]: > 100 µM
TGI [37]: > 100 µM
TGI [38]: > 100 µM
TGI [39]: > 100 µM
TGI [40]: > 100 µM
TGI [41]: > 100 µM
TGI [42]: > 100 µM
TGI [43]: > 100 µM
TGI [44]: > 100 µM
TGI [45]: 36.1 µM
TGI [46]: > 100 µM
TGI [47]: > 100 µM
TGI [48]: > 100 µM
TGI [49]: > 100 µM
TGI [50]: > 100 µM
TGI [51]: > 100 µM
TGI [52]: > 100 µM
TGI [53]: > 100 µM
TGI [54]: > 100 µM
TGI [55]: > 100 µM
TGI [56]: > 100 µM
TGI [57]: > 100 µM

CC1NC(=O)[C@H](C)N(C)C(=O)[C@@H]2CCCN2C(=O)[C@@H](NC(=O)C(Cc2ccccc2)NC(=O)/C=C/C=C/C=C/C=C/C=C/C(=O)NC2=C(O)CCC2=O)COC(=O)[C@@H]2C[C@@H](C)CN2C1=O (stereo partly drawn) (X26-[ξF]SP[NMeA][ξA][Pro(4R-Me)]; ester 2-C)
TGI [1]: > 100 µM
TGI [2]: > 100 µM
TGI [3]: > 100 µM
TGI [4]: > 100 µM
TGI [5]: > 100 µM
TGI [6]: > 100 µM
TGI [7]: > 100 µM
TGI [8]: > 100 µM
TGI [9]: > 100 µM
TGI [58]: > 100 µM
TGI [10]: > 100 µM
TGI [11]: > 100 µM
TGI [12]: > 100 µM
TGI [13]: > 100 µM
TGI [14]: > 100 µM
TGI [15]: > 100 µM
TGI [16]: > 100 µM
TGI [17]: > 100 µM
TGI [18]: > 100 µM
TGI [19]: > 100 µM
TGI [20]: > 100 µM
TGI [21]: > 100 µM
TGI [22]: > 100 µM
TGI [23]: > 100 µM
TGI [24]: > 100 µM
TGI [25]: > 100 µM
TGI [26]: > 100 µM
TGI [27]: > 100 µM
TGI [28]: > 100 µM
TGI [29]: > 100 µM
TGI [30]: > 100 µM
TGI [31]: > 100 µM
TGI [32]: > 100 µM
TGI [33]: > 100 µM
TGI [34]: > 100 µM
TGI [35]: > 100 µM
TGI [36]: > 100 µM
TGI [37]: > 100 µM
TGI [38]: > 100 µM
TGI [39]: > 100 µM
TGI [40]: > 100 µM
TGI [41]: > 100 µM
TGI [42]: > 100 µM
TGI [43]: > 100 µM
TGI [44]: > 100 µM
TGI [45]: > 100 µM
TGI [46]: > 100 µM
TGI [47]: > 100 µM
TGI [48]: > 100 µM
TGI [51]: > 100 µM
TGI [52]: > 100 µM
TGI [53]: > 100 µM
TGI [54]: > 100 µM
TGI [55]: > 100 µM
TGI [56]: > 100 µM
TGI [57]: > 100 µM
